According to article PMC4661905, “A Mechanism of O-Demethylation of Aristolochic Acid I by Cytochromes P450 and Their Contributions to This Reaction in Human and Rat Livers: Experimental and Theoretical Approaches” (International Journal of Molecular Sciences, 2015):

How the values were obtained:
[1] = test system: CYP enzymes of liver microsomes that oxidise (demethylate) AAI to AAIa; experiment: Effect of CYP inhibitors on AAI oxidation to AAIa by human liver microsomes; type: in vitro ADME; conditions: pH 7.4, probe AAI (10 μM), inhibitor 10 μM equimolar to AAI (10 μM), 0.1 nmol CYP, mean ± SD, n = 3, NI = no inhibition, read-out: AAIa Formation (% of Control without Inhibitor) Human Microsomes
Procedure: (§1) Incubation mixtures (250 μL) contained 100 mM potassium phosphate buffer (pH 7.4), 1 mM NADPH, 1 mg human or rat liver microsomal protein and 10 μM AAI [30, 43]. […] Control incubations were performed (i) without microsomal proteins; (ii) without NADPH; or (iii) without AAI. […] For Supersomes™, incubation mixtures (final volume 250 μL) consisted of 100 mM potassium phosphate buffer (pH 7.4), 1 mM NADP^+, 10 mM MgCl2, 10 mM D-glucose 6-phosphate, 1 U/mL D-glucose 6-phosphate dehydrogenase (NADPH-generating system), 50 nM CYPs in Supersomes™, and 10 μM AAI. Supersomes™ with POR alone were utilized as controls. AAI and its metabolites (i.e., AAIa) were extracted from incubation mixtures with 2 × 1 mL of ethyl acetate and evaporated to dryness; residues were dissolved in 30 μL of methanol and analyzed with reverse-phase HPLC as described.
(§2) Compounds were dissolved in 2.5 μL methanol (except for DDTC that was dissolved in distilled water) to yield final concentrations of 10 μM in the incubation mixtures. Inhibitors (10 μM) were incubated at 37 °C for 10 min with the NADPH-generating system prior to addition of 10 μM AAI, and then incubated for an additional 20 min at 37 °C. AAIa formation was analyzed by HPLC as described above.

[2] = test system: CYP enzymes of liver microsomes that oxidise (demethylate) AAI to AAIa; experiment: Effect of CYP inhibitors on AAI oxidation to AAIa by rat liver microsomes; type: in vitro ADME; conditions: male, Wistar, pH 7.4, probe AAI (10 μM), inhibitor 10 μM equimolar to AAI (10 μM), 0.1 nmol CYP, mean ± SD, n = 3, NI = no inhibition, read-out: AAIa Formation (% of Control without Inhibitor) Rat Microsomes
Procedure: Microsomal fractions were prepared from livers of ten male Wistar rats (AnLab, Prague, Czech Republic) by differential centrifugation as described previously.
as §1, §2

CYP2D6 = experiment: Contribution of CYP to AAI oxidation in human liver; type: in vitro ADME
Procedure: (§3) In order to calculate the contributions of individual CYPs to AAI oxidation in human and rat livers, we utilized the velocities of AAI oxidation to AAIa by the Supersomal CYP enzyme systems containing cytochrome b5 (Figure 2) in the combination with the data on the expression levels of CYPs in human and rat livers. The contributions of these enzymes were calculated by relative activity factor because the activities of CYP in Supersomes™ should be considered in addition to the relative contents of CYPs in the livers. Therefore, the contributions of each CYP that oxidizes AAI in livers were calculated by dividing of the relative activity of each of such CYPs oxidizing AAI [r.a.cypi] (rate of AAI oxidation multiplied by amounts of this CYP in tissues examined), by the total relative activities (∑[r.a.cypi]) of all CYPs oxidizing this substrate. Of human liver CYPs, CYP3A4 is the major enzyme present in this human organ (~30% of the CYP hepatic complement), followed by CYP2C9 and 1A2 (~15% and ~13%, respectively), while CYP2C19, 2E1 2A6, 2D6, 2C8, and 3A5 are present in human liver in levels of the range of ~8.5%–~2.5% of the liver CYPs (see [58] for an overview). CYPs of the 2C subfamily (CYP2C6, 2C11, 2C12, and 2C13) are the major enzymes expressed in rat livers accounting of ~55% of the CYP complement. Of the CYP2C complement, ~50% and ~20% correspond to CYP2C11 and 2C6, respectively. Of the other CYPs, CYP2E1, 3A, 2D, 2A, 2B, and 1A enzymes are also present in rat livers, expressed in levels of ~15%, ~10%, ~7%, ~6%, ~5%, and ~2%, respectively.

CYP1B1 = experiment: as above; type: in vitro ADME
Procedure: as §3

CYP1A1 [3] = experiment: as above; type: in vitro ADME; conditions: from Supersomal velocities with cytochrome b5 and CYP expression levels
Procedure: as §3

CYP2B6 = experiment: as above; type: in vitro ADME
Procedure: as §3

CYP3A5 = experiment: as above; type: in vitro ADME
Procedure: as §3

CYP3A4 = experiment: as above; type: in vitro ADME; conditions: from Supersomal velocities with cytochrome b5 and CYP expression levels
Procedure: as §3

CYP1A2 = experiment: as above; type: in vitro ADME; conditions: from Supersomal velocities with cytochrome b5 and CYP expression levels
Procedure: as §3

CYP2C19 = experiment: as above; type: in vitro ADME
Procedure: as §3

CYP2C8 = experiment: as above; type: in vitro ADME
Procedure: as §3

CYP2E1 = experiment: as above; type: in vitro ADME
Procedure: as §3

CYP2C9 [4] = experiment: as above; type: in vitro ADME; conditions: from Supersomal velocities with cytochrome b5 and CYP expression levels
Procedure: as §3

human CYP1A2 = conditions: CYP1A2, with vs without cytochrome b5; cited from earlier work
CYP2C11 = experiment: Contribution of CYP to AAI oxidation in rat liver; type: in vitro ADME
Procedure: as §3

CYP1A1 [5] = experiment: Contribution of CYP to AAI oxidation in rat liver; type: in vitro ADME
Procedure: as §3

CYP2C subfamily = experiment: Contribution of CYP to AAI oxidation in rat liver; type: in vitro ADME
Procedure: as §3

CYP1A subfamily = experiment: Contribution of CYP to AAI oxidation in rat liver; type: in vitro ADME
Procedure: as §3

CYP2C6 = experiment: Contribution of CYP to AAI oxidation in rat liver; type: in vitro ADME
Procedure: as §3

CYP2C9 [6] = conditions: CYP2C9, with vs without cytochrome b5; cited from earlier work

For Cc1nc2c([nH]1)c(=O)n(C)c(=O)n2Cc1ccco1 [Furafylline, furafylline], which activity at 20 min, 10 μM [1] is on record?
The activity at 20 min, 10 μM was 75 ± 4%.

And the activity at 20 min, 10 μM [2]?
The activity at 20 min, 10 μM was 84 ± 5%.

What does the source list for CCN(CC)C(=S)S [DDTC, diethyldithiocarbamate]?
activity at 20 min, 10 μM [1]: 96 ± 5%; activity at 20 min, 10 μM [2]: 52 ± 4%

What does the source list for O=c1cc(-c2ccccc2)oc2c1ccc1ccccc12 [α-Napththoflavone, α-Naphthoflavone]?
activity at 20 min, 10 μM [1]: 89 ± 5%; activity at 20 min, 10 μM [2]: 85 ± 5%

What does the source list for COc1cccc2c1cc([N+](=O)[O-])c1c(C(=O)O)cc3c(c12)OCO3 [AAI, aristolochic acid I]?
Contribution to AAI oxidation to AAIa (CYP2D6): negligible; Contribution to AAI oxidation to AAIa (CYP1B1): negligible; Contribution to AAI oxidation to AAIa (CYP1A1 [3]): ~ 8.3%; Contribution to AAI oxidation to AAIa (CYP2B6): negligible; Contribution to AAI oxidation to AAIa (CYP3A5): negligible; Contribution to AAI oxidation to AAIa (CYP3A4): ~ 10.5%; Contribution to AAI oxidation to AAIa (CYP1A2): ~ 47.5%; Contribution to AAI oxidation to AAIa (CYP2C19): ~ 0.6%; Contribution to AAI oxidation to AAIa (CYP2C8): ~ 1.0%; Contribution to AAI oxidation to AAIa (CYP2E1): ~ 1.1%; Contribution to AAI oxidation to AAIa (CYP2C9 [4]): ~ 15.8%; Increase in AAIa formation by cytochrome b5 (human CYP1A2): not significant; Contribution to AAI oxidation to AAIa (CYP2C11): ~ 42%; Contribution to AAI oxidation to AAIa (CYP1A1 [5]): ~ 1.7%; Contribution to AAI oxidation to AAIa (CYP2C subfamily): ~ 83%; Contribution to AAI oxidation to AAIa (CYP1A subfamily): ~ 17%; Contribution to AAI oxidation to AAIa (CYP2C6): ~ 17%; Increase in AAIa formation by cytochrome b5 (CYP2C9 [6]): not significant

What does the source list for Nc1ccc(S(=O)(=O)Nc2ccnn2-c2ccccc2)cc1 [Sulfaphenazole, sulfaphenazole]?
activity at 20 min, 10 μM [1]: > 100%; activity at 20 min, 10 μM [2]: 68 ± 3%

With C=C[C@H]1C[N@@]2CC[C@H]1C[C@@H]2[C@@H](O)c1ccnc2ccc(OC)cc12 [Quinidine, quinidine] as the molecule, how does the activity at 20 min, 10 μM [1] read?
The activity at 20 min, 10 μM was over 100%.

What about the activity at 20 min, 10 μM [2] of the same molecule?
Its activity at 20 min, 10 μM is over 100%.
